How the values were obtained:
Assay in all cases: Kinase profiling
Format in all cases: biochemical
ZAK = target: T1, ZAK (Homo sapiens, UniProt Q9NYL2)
T1 construct: purchased ProQinase (Freiburg, Germany)
Protocol: (§1) The analysis was performed by ProQinase (Freiburg, Germany).

TYK2 = target: T2, TYK2 (Homo sapiens, UniProt P29597)
T2 construct: purchased ProQinase (Freiburg, Germany)
Protocol: as §1

AMPKalpha1 = target: T3, AMPKalpha1 (Homo sapiens, UniProt Q13131)
T3 construct: purchased ProQinase (Freiburg, Germany)
Protocol: as §1

MEKK2 = target: T4, MEKK2 (Homo sapiens, UniProt Q9Y2U5)
T4 construct: purchased ProQinase (Freiburg, Germany)
T4 sequence (Q9Y2U5 1-619): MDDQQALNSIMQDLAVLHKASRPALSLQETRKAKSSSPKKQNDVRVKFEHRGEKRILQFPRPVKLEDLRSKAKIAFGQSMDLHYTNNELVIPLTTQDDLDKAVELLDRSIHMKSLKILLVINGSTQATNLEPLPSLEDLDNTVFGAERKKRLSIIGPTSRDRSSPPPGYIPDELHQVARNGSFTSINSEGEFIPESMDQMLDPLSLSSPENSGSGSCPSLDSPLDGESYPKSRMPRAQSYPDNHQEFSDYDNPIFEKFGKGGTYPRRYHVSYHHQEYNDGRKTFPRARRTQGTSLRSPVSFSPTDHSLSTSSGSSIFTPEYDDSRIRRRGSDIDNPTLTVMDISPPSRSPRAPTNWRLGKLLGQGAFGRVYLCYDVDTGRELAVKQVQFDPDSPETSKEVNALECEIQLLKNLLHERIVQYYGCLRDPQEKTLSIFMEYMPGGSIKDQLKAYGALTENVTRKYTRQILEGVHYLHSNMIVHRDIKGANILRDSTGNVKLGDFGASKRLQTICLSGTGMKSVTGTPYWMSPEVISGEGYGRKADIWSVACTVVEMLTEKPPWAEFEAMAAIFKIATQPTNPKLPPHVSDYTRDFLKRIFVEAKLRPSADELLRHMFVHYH
Protocol: as §1

MEK2 = target: T5, MEK2 (Homo sapiens, UniProt P36507)
T5 construct: purchased ProQinase (Freiburg, Germany)
Protocol: as §1

ERK1 = target: T6, ERK1 (Homo sapiens, UniProt P27361)
T6 construct: purchased ProQinase (Freiburg, Germany)
Protocol: as §1

STK17A = target: T7, STK17A (Homo sapiens, UniProt Q9UEE5)
T7 construct: purchased ProQinase (Freiburg, Germany)
T7 sequence (Q9UEE5 1-414): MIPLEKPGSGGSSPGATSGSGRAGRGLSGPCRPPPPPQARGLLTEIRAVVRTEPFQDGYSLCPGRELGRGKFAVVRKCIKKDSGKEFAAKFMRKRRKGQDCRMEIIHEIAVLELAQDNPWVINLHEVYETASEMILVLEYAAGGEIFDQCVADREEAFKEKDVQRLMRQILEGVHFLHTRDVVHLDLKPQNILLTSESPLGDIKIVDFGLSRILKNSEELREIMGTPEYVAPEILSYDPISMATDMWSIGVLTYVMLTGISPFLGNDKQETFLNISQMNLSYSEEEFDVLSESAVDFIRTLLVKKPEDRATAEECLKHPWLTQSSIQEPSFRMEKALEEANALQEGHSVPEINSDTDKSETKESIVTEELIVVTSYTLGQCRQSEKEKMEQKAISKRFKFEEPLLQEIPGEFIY
Protocol: as §1

PYK2 = target: T8, PYK2 (Homo sapiens, UniProt Q14289)
T8 construct: purchased ProQinase (Freiburg, Germany)
Protocol: as §1

CK1gamma2 = target: T9, CK1gamma2 (Homo sapiens, UniProt P78368)
T9 construct: purchased ProQinase (Freiburg, Germany)
Protocol: as §1

LIMK1 = target: T10, LIMK1 (Homo sapiens, UniProt P53667)
T10 construct: purchased ProQinase (Freiburg, Germany)
Protocol: as §1

CDK2/CycA2 = target: T11, CDK2/CycA2 (Homo sapiens, UniProt P24941)
T11 construct: purchased ProQinase (Freiburg, Germany)
Protocol: as §1

RPS6KA2 = target: T12, RPS6KA2 (Homo sapiens, UniProt Q15349)
T12 construct: purchased ProQinase (Freiburg, Germany)
Protocol: as §1

STK33 = target: T13, STK33 (Homo sapiens, UniProt Q9BYT3)
T13 construct: purchased ProQinase (Freiburg, Germany)
Protocol: as §1

CSK = target: T14, CSK (Homo sapiens, UniProt P41240)
T14 construct: purchased ProQinase (Freiburg, Germany)
Protocol: as §1

IRAK4 = target: T15, IRAK4 (Homo sapiens, UniProt Q9NWZ3)
T15 construct: purchased ProQinase (Freiburg, Germany)
T15 sequence (Q9NWZ3 1-460): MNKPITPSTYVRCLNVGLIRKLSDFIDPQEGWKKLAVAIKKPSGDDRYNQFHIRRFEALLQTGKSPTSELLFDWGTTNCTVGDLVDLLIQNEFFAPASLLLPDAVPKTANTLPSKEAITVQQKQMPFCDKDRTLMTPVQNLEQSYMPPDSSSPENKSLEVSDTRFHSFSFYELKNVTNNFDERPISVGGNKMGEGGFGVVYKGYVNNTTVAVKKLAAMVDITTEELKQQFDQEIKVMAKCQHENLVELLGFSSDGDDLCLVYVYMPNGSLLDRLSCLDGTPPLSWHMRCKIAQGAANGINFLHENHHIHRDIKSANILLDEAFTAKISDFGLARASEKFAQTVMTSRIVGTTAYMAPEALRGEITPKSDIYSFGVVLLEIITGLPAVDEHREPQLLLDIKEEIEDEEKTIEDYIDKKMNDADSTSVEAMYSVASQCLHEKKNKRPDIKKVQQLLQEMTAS
Protocol: as §1

T14 sequence (P41240 whole entry): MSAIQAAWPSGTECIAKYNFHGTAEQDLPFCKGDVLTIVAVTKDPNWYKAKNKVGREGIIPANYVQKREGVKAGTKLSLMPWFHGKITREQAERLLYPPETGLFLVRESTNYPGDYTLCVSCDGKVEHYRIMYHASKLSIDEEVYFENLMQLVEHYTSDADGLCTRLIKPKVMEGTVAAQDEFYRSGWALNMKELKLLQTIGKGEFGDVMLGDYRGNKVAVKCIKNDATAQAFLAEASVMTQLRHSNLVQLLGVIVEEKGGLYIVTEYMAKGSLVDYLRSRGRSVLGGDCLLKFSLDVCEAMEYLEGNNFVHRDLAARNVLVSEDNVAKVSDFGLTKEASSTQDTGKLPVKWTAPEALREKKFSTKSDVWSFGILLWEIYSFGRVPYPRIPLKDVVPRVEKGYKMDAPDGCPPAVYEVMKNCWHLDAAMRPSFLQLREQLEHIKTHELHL
T10 sequence (P53667 whole entry): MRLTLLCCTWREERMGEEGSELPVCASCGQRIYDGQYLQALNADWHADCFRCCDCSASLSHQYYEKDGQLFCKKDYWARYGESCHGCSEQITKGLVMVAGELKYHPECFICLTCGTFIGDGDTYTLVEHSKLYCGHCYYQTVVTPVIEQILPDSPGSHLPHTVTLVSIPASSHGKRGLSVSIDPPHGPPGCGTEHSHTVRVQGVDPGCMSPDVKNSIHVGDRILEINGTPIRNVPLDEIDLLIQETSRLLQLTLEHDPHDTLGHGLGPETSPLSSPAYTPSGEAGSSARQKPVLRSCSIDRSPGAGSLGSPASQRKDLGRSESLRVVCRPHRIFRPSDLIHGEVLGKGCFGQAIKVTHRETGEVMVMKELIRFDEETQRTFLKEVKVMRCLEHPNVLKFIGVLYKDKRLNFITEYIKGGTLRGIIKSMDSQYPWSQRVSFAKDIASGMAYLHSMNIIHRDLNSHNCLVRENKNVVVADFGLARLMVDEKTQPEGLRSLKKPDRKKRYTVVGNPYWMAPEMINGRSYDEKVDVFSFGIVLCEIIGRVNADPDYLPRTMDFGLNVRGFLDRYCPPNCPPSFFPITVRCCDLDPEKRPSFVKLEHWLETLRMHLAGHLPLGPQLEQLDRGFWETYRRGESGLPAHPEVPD
T13 sequence (Q9BYT3 whole entry): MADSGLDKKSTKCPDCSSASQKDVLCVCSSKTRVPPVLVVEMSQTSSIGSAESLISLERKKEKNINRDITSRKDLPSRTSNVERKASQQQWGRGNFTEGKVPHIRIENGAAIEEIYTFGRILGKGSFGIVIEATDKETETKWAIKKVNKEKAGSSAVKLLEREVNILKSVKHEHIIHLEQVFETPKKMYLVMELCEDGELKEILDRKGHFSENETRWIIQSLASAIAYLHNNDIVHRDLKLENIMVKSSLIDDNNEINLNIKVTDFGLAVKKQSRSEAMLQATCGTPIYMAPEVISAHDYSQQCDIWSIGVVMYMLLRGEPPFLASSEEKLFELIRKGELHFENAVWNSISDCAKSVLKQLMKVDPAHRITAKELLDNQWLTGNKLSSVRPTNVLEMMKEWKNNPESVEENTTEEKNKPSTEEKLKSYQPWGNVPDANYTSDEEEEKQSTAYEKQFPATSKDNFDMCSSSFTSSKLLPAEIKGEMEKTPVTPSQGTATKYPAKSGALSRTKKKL
T9 sequence (P78368 whole entry): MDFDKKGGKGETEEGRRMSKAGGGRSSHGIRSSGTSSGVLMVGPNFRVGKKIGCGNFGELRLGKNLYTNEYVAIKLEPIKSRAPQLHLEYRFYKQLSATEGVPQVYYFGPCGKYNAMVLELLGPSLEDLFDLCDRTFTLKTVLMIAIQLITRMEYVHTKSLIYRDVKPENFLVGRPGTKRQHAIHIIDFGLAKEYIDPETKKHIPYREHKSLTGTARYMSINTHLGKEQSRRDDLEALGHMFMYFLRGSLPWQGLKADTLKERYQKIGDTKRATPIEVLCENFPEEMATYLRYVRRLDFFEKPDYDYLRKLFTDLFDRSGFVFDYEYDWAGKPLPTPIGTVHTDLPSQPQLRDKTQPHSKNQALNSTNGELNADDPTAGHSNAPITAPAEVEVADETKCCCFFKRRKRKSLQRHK
T6 sequence (P27361 whole entry): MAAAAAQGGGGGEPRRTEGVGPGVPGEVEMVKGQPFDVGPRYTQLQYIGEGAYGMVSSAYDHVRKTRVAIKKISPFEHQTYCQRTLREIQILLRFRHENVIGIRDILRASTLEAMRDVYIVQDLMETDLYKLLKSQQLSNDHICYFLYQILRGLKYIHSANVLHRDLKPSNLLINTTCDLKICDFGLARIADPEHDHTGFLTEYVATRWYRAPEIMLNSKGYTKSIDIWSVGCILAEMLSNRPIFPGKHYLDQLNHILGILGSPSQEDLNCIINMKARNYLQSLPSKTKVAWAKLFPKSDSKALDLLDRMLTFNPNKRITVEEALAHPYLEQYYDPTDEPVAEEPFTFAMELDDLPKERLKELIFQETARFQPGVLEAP
T1 sequence (Q9NYL2 whole entry): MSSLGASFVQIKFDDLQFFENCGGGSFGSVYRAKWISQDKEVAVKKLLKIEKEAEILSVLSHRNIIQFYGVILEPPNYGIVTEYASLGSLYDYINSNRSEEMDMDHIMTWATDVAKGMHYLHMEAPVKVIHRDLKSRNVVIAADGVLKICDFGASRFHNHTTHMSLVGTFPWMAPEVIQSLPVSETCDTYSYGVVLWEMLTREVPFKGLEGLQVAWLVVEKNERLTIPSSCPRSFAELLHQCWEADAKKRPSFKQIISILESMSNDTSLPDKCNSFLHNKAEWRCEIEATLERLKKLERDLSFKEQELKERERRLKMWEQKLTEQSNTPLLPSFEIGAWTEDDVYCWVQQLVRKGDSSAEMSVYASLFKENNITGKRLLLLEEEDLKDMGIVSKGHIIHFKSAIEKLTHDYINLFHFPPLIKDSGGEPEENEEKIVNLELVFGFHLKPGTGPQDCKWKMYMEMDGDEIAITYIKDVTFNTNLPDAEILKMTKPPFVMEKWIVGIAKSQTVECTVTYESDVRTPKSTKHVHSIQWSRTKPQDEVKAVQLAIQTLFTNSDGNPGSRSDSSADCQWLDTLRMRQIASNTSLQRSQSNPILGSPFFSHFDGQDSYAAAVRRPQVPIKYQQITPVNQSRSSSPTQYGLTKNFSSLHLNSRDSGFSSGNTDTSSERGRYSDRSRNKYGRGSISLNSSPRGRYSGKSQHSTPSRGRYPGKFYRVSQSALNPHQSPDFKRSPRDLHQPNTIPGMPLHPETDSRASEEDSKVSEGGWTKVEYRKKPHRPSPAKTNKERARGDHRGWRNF
T5 sequence (P36507 whole entry): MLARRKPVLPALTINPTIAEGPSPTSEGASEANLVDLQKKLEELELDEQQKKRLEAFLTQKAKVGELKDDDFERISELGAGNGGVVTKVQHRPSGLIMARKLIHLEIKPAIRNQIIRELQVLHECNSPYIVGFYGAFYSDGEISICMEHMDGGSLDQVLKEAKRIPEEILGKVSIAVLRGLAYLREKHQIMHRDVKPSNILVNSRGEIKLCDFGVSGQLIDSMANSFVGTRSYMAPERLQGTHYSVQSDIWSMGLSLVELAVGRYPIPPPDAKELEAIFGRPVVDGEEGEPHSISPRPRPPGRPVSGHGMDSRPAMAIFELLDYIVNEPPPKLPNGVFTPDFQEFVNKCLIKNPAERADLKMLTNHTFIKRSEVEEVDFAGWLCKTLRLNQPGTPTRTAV
T12 sequence (Q15349 whole entry): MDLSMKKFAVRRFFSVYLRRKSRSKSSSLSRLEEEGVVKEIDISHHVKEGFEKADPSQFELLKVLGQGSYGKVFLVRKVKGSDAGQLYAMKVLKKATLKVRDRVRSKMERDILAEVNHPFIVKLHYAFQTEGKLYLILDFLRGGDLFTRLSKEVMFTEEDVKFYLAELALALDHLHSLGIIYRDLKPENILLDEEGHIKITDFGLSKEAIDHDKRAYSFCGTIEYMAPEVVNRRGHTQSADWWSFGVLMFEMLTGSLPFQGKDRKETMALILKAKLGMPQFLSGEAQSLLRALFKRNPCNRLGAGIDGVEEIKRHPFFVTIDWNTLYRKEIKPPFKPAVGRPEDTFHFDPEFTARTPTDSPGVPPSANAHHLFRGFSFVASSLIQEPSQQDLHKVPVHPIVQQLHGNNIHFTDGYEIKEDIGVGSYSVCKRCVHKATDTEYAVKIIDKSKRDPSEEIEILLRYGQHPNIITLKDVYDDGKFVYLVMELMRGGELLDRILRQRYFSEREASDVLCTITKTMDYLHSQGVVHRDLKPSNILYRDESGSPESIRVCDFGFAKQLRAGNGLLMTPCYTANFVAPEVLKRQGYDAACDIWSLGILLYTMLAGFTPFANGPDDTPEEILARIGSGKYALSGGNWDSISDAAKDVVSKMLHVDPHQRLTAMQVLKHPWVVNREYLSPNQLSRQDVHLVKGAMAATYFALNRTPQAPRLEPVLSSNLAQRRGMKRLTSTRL
T3 sequence (Q13131 10-559 limits assumed): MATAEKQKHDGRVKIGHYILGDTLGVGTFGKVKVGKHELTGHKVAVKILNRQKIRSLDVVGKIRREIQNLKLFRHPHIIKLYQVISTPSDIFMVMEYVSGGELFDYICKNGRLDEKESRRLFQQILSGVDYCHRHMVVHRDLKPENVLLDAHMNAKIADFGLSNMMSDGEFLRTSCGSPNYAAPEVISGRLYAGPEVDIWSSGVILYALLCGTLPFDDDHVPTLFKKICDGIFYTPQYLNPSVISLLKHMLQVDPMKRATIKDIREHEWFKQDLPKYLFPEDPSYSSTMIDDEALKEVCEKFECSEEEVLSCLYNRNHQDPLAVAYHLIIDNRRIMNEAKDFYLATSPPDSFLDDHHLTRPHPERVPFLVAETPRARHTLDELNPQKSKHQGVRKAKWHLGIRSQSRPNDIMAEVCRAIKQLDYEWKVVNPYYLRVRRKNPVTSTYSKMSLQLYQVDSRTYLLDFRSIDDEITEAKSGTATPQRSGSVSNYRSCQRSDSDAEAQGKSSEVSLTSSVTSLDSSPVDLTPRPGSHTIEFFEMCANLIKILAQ

## O=C(Cc1ccccc1)Nc1ccc(F)c(Nc2ccc3c(c2)CCCCC3=O)c1 [Compound 100]
ZAK; 1.0E-05 M
  Residual activity: 102 % of control
ZAK; 1.0E-06 M
  Residual activity: 109 % of control
TYK2; 1.0E-05 M
  Residual activity: 83 % of control
TYK2; 1.0E-06 M
  Residual activity: 95 % of control
AMPKalpha1; 1.0E-05 M
  Residual activity: 101 % of control
AMPKalpha1; 1.0E-06 M
  Residual activity: 112 % of control
MEKK2; 1.0E-05 M
  Residual activity: 108 % of control
MEKK2; 1.0E-06 M
  Residual activity: 108 % of control
MEK2; 1.0E-05 M
  Residual activity: 88 % of control
MEK2; 1.0E-06 M
  Residual activity: 102 % of control
ERK1; 1.0E-05 M
  Residual activity: 99 % of control
ERK1; 1.0E-06 M
  Residual activity: 99 % of control
STK17A; 1.0E-05 M
  Residual activity: 76 % of control
STK17A; 1.0E-06 M
  Residual activity: 111 % of control
PYK2; 1.0E-05 M
  Residual activity: 79 % of control
PYK2; 1.0E-06 M
  Residual activity: 108 % of control
CK1gamma2; 1.0E-05 M
  Residual activity: 114 % of control
CK1gamma2; 1.0E-06 M
  Residual activity: 104 % of control
LIMK1; 1.0E-05 M
  Residual activity: 87 % of control
LIMK1; 1.0E-06 M
  Residual activity: 102 % of control
CDK2/CycA2; 1.0E-05 M
  Residual activity: 106 % of control
CDK2/CycA2; 1.0E-06 M
  Residual activity: 87 % of control
RPS6KA2; 1.0E-05 M
  Residual activity: 84 % of control
RPS6KA2; 1.0E-06 M
  Residual activity: 95 % of control
STK33; 1.0E-05 M
  Residual activity: 96 % of control
STK33; 1.0E-06 M
  Residual activity: 109 % of control
CSK; 1.0E-05 M
  Residual activity: 96 % of control
CSK; 1.0E-06 M
  Residual activity: 106 % of control
IRAK4; 1.0E-05 M
  Residual activity: 100 % of control
IRAK4; 1.0E-06 M
  Residual activity: 97 % of control

## O=C(Nc1ccc(F)c(Nc2ccc3c(c2)CCCCC3=O)c1)c1cccc(F)c1 [Compound 109]
ZAK; 1.0E-05 M
  Residual activity: 106 % of control
ZAK; 1.0E-06 M
  Residual activity: 106 % of control
TYK2; 1.0E-05 M
  Residual activity: 93 % of control
TYK2; 1.0E-06 M
  Residual activity: 102 % of control
AMPKalpha1; 1.0E-05 M
  Residual activity: 98 % of control
AMPKalpha1; 1.0E-06 M
  Residual activity: 99 % of control
MEKK2; 1.0E-05 M
  Residual activity: 101 % of control
MEKK2; 1.0E-06 M
  Residual activity: 99 % of control
MEK2; 1.0E-05 M
  Residual activity: 89 % of control
MEK2; 1.0E-06 M
  Residual activity: 100 % of control
ERK1; 1.0E-05 M
  Residual activity: 102 % of control
ERK1; 1.0E-06 M
  Residual activity: 100 % of control
STK17A; 1.0E-05 M
  Residual activity: 88 % of control
STK17A; 1.0E-06 M
  Residual activity: 105 % of control
PYK2; 1.0E-05 M
  Residual activity: 80 % of control
PYK2; 1.0E-06 M
  Residual activity: 87 % of control
CK1gamma2; 1.0E-05 M
  Residual activity: 70 % of control
CK1gamma2; 1.0E-06 M
  Residual activity: 84 % of control
LIMK1; 1.0E-05 M
  Residual activity: 96 % of control
LIMK1; 1.0E-06 M
  Residual activity: 89 % of control
CDK2/CycA2; 1.0E-05 M
  Residual activity: 94 % of control
CDK2/CycA2; 1.0E-06 M
  Residual activity: 83 % of control
RPS6KA2; 1.0E-05 M
  Residual activity: 75 % of control
RPS6KA2; 1.0E-06 M
  Residual activity: 95 % of control
STK33; 1.0E-05 M
  Residual activity: 99 % of control
STK33; 1.0E-06 M
  Residual activity: 93 % of control
CSK; 1.0E-05 M
  Residual activity: 109 % of control
CSK; 1.0E-06 M
  Residual activity: 112 % of control
IRAK4; 1.0E-05 M
  Residual activity: 93 % of control
IRAK4; 1.0E-06 M
  Residual activity: 92 % of control
